Here are results for ten compounds from patent US11643436B2, “Polypeptide compound, pharmaceutical composition, preparation method and application thereof” (CHENGDU SINTANOVO BIOTECHNOLOGY CO., LTD., priority 2019, dated 2023).

One data set addresses cytochrome P450 CYP 1A2 (Homo sapiens (Human), UniProt P05177). Put plainly: Inhibition of cytochrome P450 in human liver microsomes, CYP 1A2. The format is in vitro ADME. The procedure:
(§1) The human liver microsomes (0.253 mg/mL protein) containing cytochrome P450, test compounds (0.05-50 μM), CYPs substrates (10 μM […], 5 μM diclofenac, 30 μM mephenytoin, 5 μM dextromethorphan hydrobromide, 2 μM midazolam), 1.0 mM NADP were incubated at 37° C. for 10 minutes. Naflavone, sulfafenpyrazole, N-3-benzylnivan, quinidine, and ketoconazole were used as reference inhibitors.
For orientation: Liver microsomes are vesicles of endoplasmic reticulum, rich in cytochrome P450 enzymes.

Another data set addresses cytochrome P450 CYP 2D6 (Homo sapiens (Human), UniProt P10635). Put plainly: Inhibition of cytochrome P450 in human liver microsomes, CYP 2D6. The format is in vitro ADME. How it is done:
as §1

A further data set has as its target cytochrome P450 CYP 3A4 (Homo sapiens (Human), UniProt P08684). Put plainly: Inhibition of cytochrome P450 in human liver microsomes, CYP 3A4. The format is in vitro ADME. The procedure: as §1
A further data set addresses cytochrome P450 CYP 2C9 (Homo sapiens (Human), UniProt P11712). Put plainly: Inhibition of cytochrome P450 in human liver microsomes, CYP 2C9. The data set is classed as in vitro ADME. How it is done:
as §1

The target in the next data set is cytochrome P450 CYP 2C19 (Homo sapiens (Human), UniProt P33261). Put plainly: Inhibition of cytochrome P450 in human liver microsomes, CYP 2C19. The format is in vitro ADME. How it is done:
as §1

Data set [1] is described as follows: Caco-2 membrane permeability assay. The data set is classed as in vitro ADME. The settings on record: human, Caco-2, A-B direction, pH 7.4, 37° C. How it is done:
The Caco-2 cell line is a human colon adenocarcinoma cell line that differentiates in culture and is used to model the epithelial lining of the human small intestine. Compounds of the present invention were tested in a membrane permeability assay using Caco-2 cell membrane layer in a standard assay. The apparent permeability coefficient (Papp) can be determined in the apical-to-basolateral (A-B) direction across cell monolayers cultured on 96-well polycarbonate membrane filters. The compound was maintained at pH 7.4 on the […] at a concentration of 5 μM, and the test plate was gently shaken and incubated at 37° C. for 120 minutes. Samples were taken at time zero from the donor side and at the end of the incubation period from both the donor and acceptor sides. Samples were analyzed by HPLC-MS/MS. The Papp value (expressed as […]) was then calculated based on the appearance rate of compound on the recipient side. Papp can be calculated by the following equation: Papp=(VA×[drug]acceptor)/(Area×Time×[drug]initial, donor) wherein Papp is the apparent permeability; VA is the volume of the acceptor side, Area is the surface area of the membrane, [drug]initial, donor is the concentration on the donor side at time zero, [drug]acceptor is the concentration of the compounds on the recipient side at the end of the incubation period, Time is the total incubation time.
On the technique in general: Caco-2 cells form a polarised layer with tight junctions and transporters.

The target in the next data set is human κ-opioid receptor (Homo sapiens (Human), UniProt P41145). Put plainly: Forskolin-stimulated cAMP inhibition in HEK293 cells, κ-opioid receptor agonism. The format is cell-based. Particulars: HEK293 cells highly expressing human κ-opioid receptor, read-out: KOR (EC50). The procedure: (§2) Forskolin can stimulate the release of cAMP from HEK293 cells with high expression of human κ (or μ, or δ)-opioid receptors. […] The efficacy of the compounds of the invention as κ-opioid receptor agonists was determined by measuring the ability of the compounds of Examples to inhibit adenylate cyclase activity.
(§3) Cell culture: The HEK293 cell line highly expressing human κ (or μ, or δ)-opioid receptor were cultured in DMEM medium containing 10% FBS.
(§4) Stimulation: the test compound was 4-fold diluted in a gradient manner to obtain 10 concentrations, and 50 nl of each was transferred to a 384-well plate, and then 10 nl Forskolin was added; the cells were digested, re-suspended, and counted; and then 10 μl of cell suspension (5×10^5 cell/mL) was added, and the cells were mixed gently, and incubated at 23° C. for 60 minutes.
(§5) Detection: cAMP Assay Kit (Cisbio) was used, cAMPD2 and Anti-cAMP conjugate were added, and the resultant mixture was incubated for 1 h at room temperature. The plate was read using envision (Perkin Elmer) and EC50 was obtained by means of fitting with a four-parameter equation.

The next data set concerns the target human δ-opioid receptor (Homo sapiens (Human), UniProt P41143). Put plainly: Forskolin-stimulated cAMP inhibition in HEK293 cells, δ-opioid receptor. The data set is classed as cell-based. The settings on record: HEK293 cells highly expressing human δ-opioid receptor, read-out: DOR (EC50). The procedure:
as §2, §3, §4, §5

For a further data set, the target named is human μ-opioid receptor (Homo sapiens (Human), UniProt P35372). Put plainly: Forskolin-stimulated cAMP inhibition in HEK293 cells, μ-opioid receptor. The format is cell-based. Particulars: HEK293 cells highly expressing human μ-opioid receptor, read-out: MOR (EC50). The procedure:
as §2, §3, §4, §5

Another data set deals with ICR male mice. Put plainly: Acetic acid writhing test in mice. The data set is classed as in vivo. Particulars: IV administration 15 minutes before 0.6% acetic acid i.p.; writhes within 15 min. How it is done:
The analgesic effect of the compound of the invention was evaluated by measuring the analgesic ED50 of the compounds of Examples in the acetic acid writhing test in mice.
The ICR male mice (18-25 g) were randomly separated into the drug group and the model group. 15 minutes after IV administration, 0.6% (v/v) acetic acid solution was intraperitoneally injected at 10 mL/kg. The number of writhes of the mice within 15 min was counted. The inhibition rate on the writhes was calculated based on the number of writhes. The ED50 of the compound to be tested was calculated based on inhibition rate according to a four-parameter equation.

Where two headings read alike, the source gives them in different places. A value given as a limit tells only on which side of the number the result lay.

Chain of human δ-opioid receptor (P41143 whole entry, looked up): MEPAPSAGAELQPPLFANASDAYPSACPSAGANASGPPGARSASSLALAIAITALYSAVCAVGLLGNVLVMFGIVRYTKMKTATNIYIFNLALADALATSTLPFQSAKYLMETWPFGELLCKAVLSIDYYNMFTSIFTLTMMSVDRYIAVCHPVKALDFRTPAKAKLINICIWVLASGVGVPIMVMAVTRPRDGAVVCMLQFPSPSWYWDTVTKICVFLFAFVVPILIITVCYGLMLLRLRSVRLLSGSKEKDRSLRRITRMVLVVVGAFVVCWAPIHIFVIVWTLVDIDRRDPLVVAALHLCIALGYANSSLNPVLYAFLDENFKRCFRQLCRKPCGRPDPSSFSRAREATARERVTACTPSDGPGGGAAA
Chain of cytochrome P450 CYP 2D6 (P10635 whole entry): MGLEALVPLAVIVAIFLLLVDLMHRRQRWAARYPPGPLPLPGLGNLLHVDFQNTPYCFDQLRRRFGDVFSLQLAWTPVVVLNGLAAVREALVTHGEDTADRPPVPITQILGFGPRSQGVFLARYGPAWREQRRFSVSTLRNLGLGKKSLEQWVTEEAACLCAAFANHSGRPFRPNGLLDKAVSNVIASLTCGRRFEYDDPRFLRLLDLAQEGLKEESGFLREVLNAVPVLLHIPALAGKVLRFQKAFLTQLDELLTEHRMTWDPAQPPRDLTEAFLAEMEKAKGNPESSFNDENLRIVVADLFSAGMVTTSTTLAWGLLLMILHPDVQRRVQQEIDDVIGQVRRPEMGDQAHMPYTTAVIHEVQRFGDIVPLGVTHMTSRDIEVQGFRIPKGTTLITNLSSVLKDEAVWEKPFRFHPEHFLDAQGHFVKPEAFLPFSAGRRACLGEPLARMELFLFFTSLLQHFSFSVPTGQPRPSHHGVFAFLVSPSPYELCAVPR
Chain of cytochrome P450 CYP 3A4 (P08684 whole entry): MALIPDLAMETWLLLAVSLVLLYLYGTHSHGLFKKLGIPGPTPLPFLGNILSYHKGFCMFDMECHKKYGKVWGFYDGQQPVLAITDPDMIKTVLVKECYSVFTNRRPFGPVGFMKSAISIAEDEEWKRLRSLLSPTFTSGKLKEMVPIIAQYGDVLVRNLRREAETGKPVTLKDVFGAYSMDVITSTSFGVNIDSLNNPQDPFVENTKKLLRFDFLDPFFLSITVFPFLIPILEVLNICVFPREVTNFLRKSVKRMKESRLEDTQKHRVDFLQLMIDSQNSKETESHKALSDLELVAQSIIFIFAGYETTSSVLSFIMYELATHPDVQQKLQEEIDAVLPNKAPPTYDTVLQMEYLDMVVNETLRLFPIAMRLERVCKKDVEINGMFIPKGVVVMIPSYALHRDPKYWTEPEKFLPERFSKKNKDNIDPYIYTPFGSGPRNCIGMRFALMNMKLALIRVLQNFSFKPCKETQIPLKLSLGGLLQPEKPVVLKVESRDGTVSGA
Chain of cytochrome P450 CYP 1A2 (P05177 whole entry): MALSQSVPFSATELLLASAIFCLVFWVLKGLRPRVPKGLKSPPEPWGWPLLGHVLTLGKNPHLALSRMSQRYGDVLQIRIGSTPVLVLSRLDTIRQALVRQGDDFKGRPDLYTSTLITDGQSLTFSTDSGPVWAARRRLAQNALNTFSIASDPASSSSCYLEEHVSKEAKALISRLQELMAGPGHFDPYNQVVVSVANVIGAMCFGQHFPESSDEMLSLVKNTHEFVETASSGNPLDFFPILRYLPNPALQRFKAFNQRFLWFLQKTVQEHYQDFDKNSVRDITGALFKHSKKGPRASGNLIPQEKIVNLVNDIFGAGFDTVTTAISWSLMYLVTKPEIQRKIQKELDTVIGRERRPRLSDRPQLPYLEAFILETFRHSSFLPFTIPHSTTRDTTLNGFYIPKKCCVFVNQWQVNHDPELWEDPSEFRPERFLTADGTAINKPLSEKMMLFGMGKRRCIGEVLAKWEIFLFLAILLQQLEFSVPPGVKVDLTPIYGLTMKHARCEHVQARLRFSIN
Chain of cytochrome P450 CYP 2C9 (P11712 whole entry): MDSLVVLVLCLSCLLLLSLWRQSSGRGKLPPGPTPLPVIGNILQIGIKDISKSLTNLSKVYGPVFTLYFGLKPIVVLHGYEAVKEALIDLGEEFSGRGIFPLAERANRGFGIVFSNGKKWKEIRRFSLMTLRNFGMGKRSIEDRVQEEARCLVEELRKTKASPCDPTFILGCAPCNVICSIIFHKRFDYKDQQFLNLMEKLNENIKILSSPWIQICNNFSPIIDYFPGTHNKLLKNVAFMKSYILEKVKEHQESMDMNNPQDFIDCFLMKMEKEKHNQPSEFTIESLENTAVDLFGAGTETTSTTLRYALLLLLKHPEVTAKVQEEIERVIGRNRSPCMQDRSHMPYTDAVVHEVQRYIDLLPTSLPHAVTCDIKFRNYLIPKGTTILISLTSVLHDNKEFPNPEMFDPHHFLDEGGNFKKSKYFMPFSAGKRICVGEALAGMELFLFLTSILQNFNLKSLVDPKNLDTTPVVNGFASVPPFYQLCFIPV
Chain of cytochrome P450 CYP 2C19 (P33261 whole entry): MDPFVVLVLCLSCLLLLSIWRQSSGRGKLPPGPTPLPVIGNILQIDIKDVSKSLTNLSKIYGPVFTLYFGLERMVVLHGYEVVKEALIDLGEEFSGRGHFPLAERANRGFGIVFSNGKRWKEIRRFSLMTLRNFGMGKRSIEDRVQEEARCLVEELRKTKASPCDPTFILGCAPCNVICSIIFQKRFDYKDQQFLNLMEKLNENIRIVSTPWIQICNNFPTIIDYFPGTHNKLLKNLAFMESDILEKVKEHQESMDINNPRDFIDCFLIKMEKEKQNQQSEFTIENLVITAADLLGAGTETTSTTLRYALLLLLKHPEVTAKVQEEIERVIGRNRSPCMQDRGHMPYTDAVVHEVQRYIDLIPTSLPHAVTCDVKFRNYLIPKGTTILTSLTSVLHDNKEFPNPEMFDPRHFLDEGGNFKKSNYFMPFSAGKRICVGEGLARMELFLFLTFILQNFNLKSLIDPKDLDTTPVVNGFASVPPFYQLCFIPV

Turning to `CC(C)C[C@@H](NC(=O)[C@@H](Cc1ccccc1)NC(=O)[C@H](N)Cc1ccccc1)C(=O)N[C@H](CCCCN)C(=O)NCCB(O)O` [TM-26], the IC50 against cytochrome P450 CYP 1A2 (microsomes), against cytochrome P450 CYP 2D6 (microsomes), at cytochrome P450 CYP 3A4 (microsomes), at cytochrome P450 CYP 2C9 (microsomes) and at cytochrome P450 CYP 2C19 (microsomes) was over 50 µM throughout. In data set [1], this compound registered a Papp A→B at 120 min, 5 μM of under 0.1 ×10⁻⁶ cm/s.

In the case of `CC(C)C[C@@H](NC(=O)[C@@H](Cc1ccccc1)NC(=O)[C@H](N)Cc1ccccc1)C(=O)N[C@H](CCCCN)C(=O)N1CC[C@@H](B(O)O)C1` [TM-2A, (R)-1-(D-Phe-D-Phe-D-Leu-D-Lys)-3-pyrrolidineboronic acid], the EC50 on human κ-opioid receptor was 0.0331 nM; on human δ-opioid receptor, over 10 µM; at human μ-opioid receptor it was over 10 µM. Moreover, the Papp A→B at 120 min, 5 μM in data set [1] was under 0.05 ×10⁻⁶ cm/s. Also, the ED50 in the data set on ICR male mice turned out to be 0.679 µg/kg.

For the compound `CC(C)C[C@@H](NC(=O)[C@@H](Cc1ccccc1)NC(=O)[C@H](N)Cc1ccccc1)C(=O)N[C@H](CCCCN)C(=O)N1CCC(B(O)O)CC1` [TM-1], the EC50 at human κ-opioid receptor is 0.0984 nM; on human δ-opioid receptor it was over 10 µM; on human μ-opioid receptor it was over 10 µM.

On to `CC(C)C[C@@H](NC(=O)[C@@H](Cc1ccccc1)NC(=O)[C@H](N)Cc1ccccc1)C(=O)N[C@H](CCCCN)C(=O)N1CCC(N)(B(O)O)CC1` [TM-8], for which the results for the EC50 on human κ-opioid receptor, on human δ-opioid receptor and at human μ-opioid receptor were 0.0846 nM, over 10 µM and over 10 µM, respectively. In data set [1], this compound came in with a Papp A→B at 120 min, 5 μM of under 0.1 ×10⁻⁶ cm/s.

As for `CC(C)C[C@@H](NC(=O)[C@@H](Cc1ccccc1)NC(=O)[C@H](N)Cc1ccccc1)C(=O)N[C@H](CCCCN)C(=O)N1CCC=C(B(O)O)C1` [TM-5], the EC50 on human κ-opioid receptor was 0.027 nM; at human δ-opioid receptor, over 10 µM; at human μ-opioid receptor, over 10 µM.

`CC(C)C[C@@H](NC(=O)[C@@H](Cc1ccccc1)NC(=O)[C@H](N)Cc1ccccc1)C(=O)N[C@H](CCCCN)C(=O)N1CCC[C@H]1B(O)O` [TM-9A, (R)-1-(D-Phe-D-Phe-D-Leu-D-Lys)-2-pyrrolidineboronic acid]: the EC50 at human δ-opioid receptor and on human μ-opioid receptor was over 10 µM each time. This compound displayed a Papp A→B at 120 min, 5 μM in data set [1] of under 0.05 ×10⁻⁶ cm/s. Also, in the data set on ICR male mice, the ED50 stood at 0.377 µg/kg.

`CC(C)C[C@@H](NC(=O)[C@@H](Cc1ccccc1)NC(=O)[C@H](N)Cc1ccccc1)C(=O)N[C@H](CCCCN)C(=O)N1CC=C(B(O)O)C1` [TM-3]: the EC50 at human κ-opioid receptor is 0.0547 nM; at human δ-opioid receptor it was over 10 µM; on human μ-opioid receptor it was over 10 µM. Moreover, the Papp A→B at 120 min, 5 μM in data set [1] is under 0.2 ×10⁻⁶ cm/s.

Turning to `CC(C)C[C@@H](NC(=O)[C@@H](Cc1ccccc1)NC(=O)[C@H](N)Cc1ccccc1)C(=O)N[C@H](CCCCN)C(=O)N1CCC2(CC1)CC(B(O)O)C2` [TM-7], the EC50 on human κ-opioid receptor is 0.0087 nM; on human δ-opioid receptor, over 10 µM; on human μ-opioid receptor, over 10 µM.

For `CC(C)C[C@@H](NC(=O)[C@@H](Cc1ccccc1)NC(=O)[C@H](N)Cc1ccccc1)C(=O)N[C@H](CCCCN)C(=O)N1CCCC[C@H]1B(O)O` [TM-13A, (R)-1-(D-Phe-D-Phe-D-Leu-D-Lys)-2-piperidine boronic acid], the EC50 on human κ-opioid receptor is 0.0946 nM; on human δ-opioid receptor, over 10 µM; at human μ-opioid receptor, over 10 µM.

Regarding `COCCOCCNCCCC[C@@H](NC(=O)[C@@H](CC(C)C)NC(=O)[C@@H](Cc1ccccc1)NC(=O)[C@H](N)Cc1ccccc1)C(=O)N1CC[C@H](B(O)O)C1` [TM-22B, (S)-1-(N2-D-Phe-D-Phe-D-Leu-N6-(2-(2-methoxyethoxy)ethyl)-D-Lys)-3-pyrrolidineboronic acid], the results for the EC50 at human κ-opioid receptor, at human δ-opioid receptor and on human μ-opioid receptor were 0.0095 nM, over 10 µM and over 10 µM, respectively. Further, the 50% inhibitory concentration (IC50) against cytochrome P450 CYP 1A2, against cytochrome P450 CYP 2D6, against cytochrome P450 CYP 3A4, at cytochrome P450 CYP 2C9 and on cytochrome P450 CYP 2C19 was over 50 µM each time. Moreover, the Papp A→B at 120 min, 5 μM in data set [1] was under 0.1 ×10⁻⁶ cm/s.

As usually defined, the IC50 is the concentration that inhibits the measured activity by half. The low end stands for greater potency, the high end for weaker potency. What is called Papp A→B is how fast a substance crosses the layer from the apical side. Low values mean slow passage, high ones fast passage. In general, EC50 refers to the concentration at which the effect is half-maximal. In general, ED50 refers to the dose at which the effect has come halfway, by size or by number of responders. Low values mean greater potency, high ones weaker potency.
